The values below come from US20250114389A1, “NUCLEOSIDES AND NUCLEOTIDES ANALOGS AS ANTIVIRAL AGENTS” (Emory University, priority 2021, published 2025).

pEC50: −log10 of the molar value.

Series [1] can be described thus: Cytotoxicity in PBM cells. It is filed as cell-based, human. The following applies: human. The procedure:
(§1) The toxicity of the compounds was assessed in Vero, human PBM, CEM (human lymphoblastoid), MT-2, and HepG2 cells, as described previously (see Schinazi R. F., Sommadossi J.-P., Saalmann V., Cannon D. L., Xie M.-Y., Hart G. C., Smith G. A. & Hahn E. F. Antimicrob. Agents Chemother. 1990, 34, 1061-67). Cycloheximide was included as positive cytotoxic control, and untreated cells exposed to solvent were included as negative controls. The cytotoxicity IC50 was obtained from the concentration-response curve using the median effective method described previously (see Chou T.-C. & Talalay P. Adv. Enzyme Regul. 1984, 22, 27-55; Belen'kii M. S. & Schinazi R. F. Antiviral Res. 1994, 25, 1-11).

Series [2] can be described thus: Cytotoxicity in CEM cells. In kind it is cell-based, human. The following applies: human, CEM lymphoblastoid cells. How it is done:
as §1

The nature of series [3]: Cytotoxicity in Vero cells. The following applies: African green monkey, Vero kidney cells.
Series [4] is described as follows: Cytotoxicity in Huh7 cells. It is filed as cell-based. The following applies: human.
Series [5] has as its system SARS-CoV-2. The experiment in a line: Anti-SARS-CoV-2 activity in Calu3 cells (virus yield inhibition). In kind it is cell-based. The following applies: Severe acute respiratory syndrome coronavirus 2, Calu-3, Table 1.
The test system of series [6] is SARS-CoV-2. The experiment in a line: Anti-SARS-CoV-2 activity in Vero cells (virus yield inhibition). In kind it is cell-based.
Series [7] deals with SARS-CoV-2. The experiment in a line: Anti-SARS-CoV-2 activity in Caco2 cells (virus yield inhibition). The following applies: for pEC50: Severe acute respiratory syndrome coronavirus 2, Caco-2, read-out: Anti-SARS-CoV-2 Activity (Caco2) EC50; for EC90: Severe acute respiratory syndrome coronavirus 2, Caco-2, read-out: Anti-SARS-CoV-2 Activity (Caco2) EC90.
Series [8] deals with Caco2 cells. The settings on record: read-out: Cytotoxicity CC50 Caco2.
For series [9], the system named is Calu3 cells. The settings on record: read-out: Cytotoxicity CC50 Calu3.
The test system of series [10] is Omicron. As to the kind of experiment: microbe, parasite or virus in culture.
Series [11] deals with Omicron. The experiment in a line: Anti-Omicron activity in Calu-3. In kind it is cell-based, SARS-CoV-2. The settings on record: Severe acute respiratory syndrome coronavirus 2.
For series [12], the system named is CEM (human lymphoblastoid) cells. The experiment in a line: Cytotoxicity in CEM cells. It is filed as cell-based. The procedure:
as §1

The test system of series [13] is Vero cells. The experiment in a line: Cytotoxicity in Vero cells. The settings on record: read-out: Cytotoxicity CC50 Vero; Vero cells.
Series [14] relates to SARS-CoV-2. As to the kind of experiment: Anti-SARS-CoV-2 activity in HAE-ALI culture. The following applies: Severe acute respiratory syndrome coronavirus 2; HAE air-liquid interface. In kind it is cell-based.
Series [15] deals with human PBM cells. The experiment in a line: Cytotoxicity in PBM cells. In kind it is cell-based. The procedure: as §1
Series [16] deals with SARS-CoV-2. As to the kind of experiment: Anti-SARS-CoV-2 activity in Calu3 ALI culture. In kind it is cell-based. The following applies: Severe acute respiratory syndrome coronavirus 2, Calu-3; Calu3 air-liquid interface.
The subject of series [17] is Huh7 cells. The experiment in a line: Cytotoxicity in Huh7 cells. In kind it is cell-based.
Series [18] is classed as in vitro ADME. The following applies: hamster, 10 μM. How it is done: An aliquot of 450 μL of human, mouse or hamster plasma were exposed to 10 μM of compound and incubated at 37° C. At 0, 5, 15, 30, 60, 90 and 120 min, 50 μL of plasma sample was mixed with 200 μL of ice-cold methanol (70%). 50 μL supernatant was dried and reconstituted in 100 μL H2O. Propantheline bromide was used as positive control. The supernatant was then subjected to LC-MS analysis (LC-MS condition: Instrument: Thermo TSQ Quantiva. Column: Kinetex […] (50×2.1 mm, […]). LC buffers: A): 0.1% formic acid, and B): acetonitrile. MRM methods: (269.2-112 positive), Indinavir (IS, 614.4-421.2 positive, IS)). The stability results are shown in FIGS. 2-4 (human plasma, mouse plasma and hamster plasma, respectively). Compound A is stable in human and mouse plasma up to 2 hours and stable up to […] in hamster plasma. Compound 23 was converted to compound A in hamster plasma in less than 5 min.

Setting [19] is: Severe acute respiratory syndrome coronavirus 2, Table 1, read-out: Anti-SARS-CoV-2 Activity (Vero) EC50.
Setting [20] is: Severe acute respiratory syndrome coronavirus 2, Table 1, read-out: Anti-SARS-CoV-2 Activity (Vero) EC90.
Where [21] appears, read: Severe acute respiratory syndrome coronavirus 2, Table 2, read-out: Anti-SARS-CoV-2 activity in Vero cells EC50.
Setting [22] is: Severe acute respiratory syndrome coronavirus 2, Table 2, read-out: Anti-SARS-CoV-2 activity in Vero cells EC90.

What is called CC50 is the concentration that lowers cell viability or growth by half. On to `CC(C)C(=O)OC[C@H]1O[C@@](C#N)(n2ccc(N)nc2=O)C(O)C1O` (stereo partly shown) [drawing 133], for which the CC50 in series [1] was 63.1 µM; in [2] it was 15.8 µM; in [3], 73.8 µM; in series [4], more than 100 µM.

Broadly, the pEC50 is the negative decadic logarithm of the EC50, by convention in mol/L. As usually defined, the EC90 is the concentration needed for an effect of 90%. On to `CC(C)C(=O)OC[C@H]1O[C@@](C#N)(n2ccc(N)nc2=O)C(O)C1O` (stereo partly shown) [drawing 122], for which the pEC50 in series [5] is 5.92; in series [6] (setting [19]) it was 5.92; in series [7] it was 6.30. In addition, the results for the concentration for an effect of 90% (EC90) in [5], in [6] (setting [20]) and in series [7] were 4 µM, 2.2 µM and 2.5 µM, respectively.

Consider `CC(C)OC(=O)[C@H](C)N[P@](=O)(OC[C@H]1O[C@@](C#N)(n2ccc(N)nc2=O)C(O)C1O)Oc1ccccc1` (stereo partly shown) [drawing 120], for which the results for the pEC50 in [5], in [6] (setting [19]) and in series [7] were less than 5.00, less than 5.00 and 6.15, respectively. In addition, the EC90 in series [5] is more than 10 µM; in series [6] (setting [20]) it was more than 10 µM; in series [7] it was 2.1 µM.

As to `CC(C)OC(=O)[C@H](C)N[P@](=O)(OC[C@H]1O[C@@](C#N)(n2ccc(N)nc2=O)C(O)C1O)Oc1ccccc1` (stereo partly shown) [drawing 131], the CC50 in series [1], in [2], in series [3] and in [4] was more than 100 µM each time.

As to `N#C[C@@]1(n2ccc(=O)[nH]c2=O)O[C@H](CO)C(O)C1O` (stereo partly shown) [drawing 119], the pEC50 in [5] was 7.10; in series [6] (setting [19]), 5.33; in [7] it was 7.70. For the same molecule, the EC90 was found to be 0.7 µM in [5], 8.5 µM in series [6] (setting [20]) and 0.2 µM in series [7].

On to `CC(C)C(=O)OC[C@H]1O[C@@](C#N)(n2ccc(=O)[nH]c2=O)C(O)C1O` (stereo partly shown) [drawing 132], for which the CC50 was more than 100 µM in series [1], 39 µM in [2], more than 100 µM in series [3] and 88.9 µM in series [4].

On to `CC(C)[C@H](N)C(=O)OC1C(O)[C@](C#N)(n2ccc(N)nc2=O)O[C@@H]1CO` (stereo partly shown) [drawing 124], for which the pEC50 in [5] is 6.52; in series [6] (setting [19]), 5.64; in series [7], 5.48. Also, the EC90 in series [5] amounted to 4.3 µM; in series [6] (setting [20]), 6.6 µM; in series [7], 8.3 µM.

For the molecule `C[C@@H]1C[C@@H]([C@H](O)CC2CC(=O)NC(=O)C2)C(=O)[C@@H](C)C1` [Cyclohexamide], the CC50 in series [8] and in series [9] was 10 µM each time.

For the molecule `N#C[C@@]1(n2ccc(=O)[nH]c2=O)O[C@H](CO)C(O)C1O` (stereo partly shown) [drawing 137], the pEC50 in series [10] (Severe acute respiratory syndrome coronavirus 2, Caco-2, read-out: Anti-Omicron Activity (Caco-2) EC50) is less than 5.00; in series [11], 5.42. The EC90 in series [10] (Severe acute respiratory syndrome coronavirus 2, Caco-2, read-out: Anti-Omicron Activity (Caco-2) EC90) is more than 10 µM; in series [11], more than 10 µM.

Turning to `CC(C)C(=O)OC[C@H]1O[C@@](C#N)(n2ccc(=O)[nH]c2=O)C(O)C1O` (stereo partly shown) [drawing 121], the negative logarithm of the EC50 (pEC50) in series [5] is 6.70; in [6] (setting [19]) it was less than 5.00; in series [7] it was 5.68. For the same molecule, the concentration for an effect of 90% (EC90) was 0.7 µM in [5] and 5.7 µM in series [7].

With `N#C[C@@]1(c2ccc3c(N)ncnn23)O[C@H](CO)C(O)C1O` (stereo partly shown), in series [6] (setting [21]), the pEC50 is more than 5.00.

For the molecule `CC(C)[C@H](N)C(=O)OC1C(O)[C@](C#N)(n2ccc(N)nc2=O)O[C@@H]1CO` (stereo partly shown) [drawing 135], the CC50 is more than 100 µM in series [1] and 93.5 µM in series [3].

In the case of `N#C[C@@]1(n2ncc(N)nc2=O)O[C@H](CO)C(O)C1O` (stereo partly shown), the pEC50 in series [6] (setting [21]) was 5.40. The 90% effect concentration (EC90) in series [6] (setting [22]) is 9.8 µM.

In the case of `O=c1nc(NO)ccn1[C@@H]1O[C@H](CO)[C@@H](O)[C@H]1O` [NHC, N^4-hydroxycytidine, reference compound], the CC50 in series [12] amounted to 2.6 µM; in series [13], 16.5 µM. The results for the pEC50 in [5], in [6] (setting [19]) and in [7] were 6.22, 6.70 and 6.00, respectively. The EC90 in [5] is 2 µM; in series [6] (setting [20]), 0.42 µM; in series [7], more than 10 µM.

For the molecule `CCCCCCCC(=O)OC[C@H]1O[C@@](C#N)(n2ccc(N)nc2=O)C(O)C1O` (stereo partly shown) [drawing 123], the pEC50 is 6.70 in [5], 6.40 in series [6] (setting [19]) and 6.15 in series [7]. The concentration for an effect of 90% (EC90) was determined as 1.2 µM in series [5], 1.1 µM in series [6] (setting [20]) and 1.7 µM in [7].

For the molecule `N#C[C@@]1(n2ccc(=O)[nH]c2=O)O[C@H](CO)C(O)C1O` (stereo partly shown) [drawing 130], the CC50 in series [1] was more than 100 µM; in series [2], 12.1 µM; in series [3], more than 100 µM; in series [4] it was more than 100 µM.

Turning to `N#C[C@]1(c2ccc3c(N)ncnn23)O[C@@H](CO)C(O)C1O` (stereo partly shown), in [6] (setting [21]), the pEC50 was less than 5.00.

Consider `CCC(CC)COC(=O)[C@H](C)N[P@](=O)(OC[C@@H]1O[C@](C#N)(c2ccc3c(N)ncnn23)C(O)C1O)Oc1ccccc1` (stereo partly shown), for which the pEC50 in [6] (setting [21]) was more than 5.00.

On to `CCC(CC)COC(=O)[C@H](C)N[P@](=O)(OC[C@H]1O[C@@](C#N)(c2ccc3c(N)ncnn23)[C@H](O)[C@@H]1O)Oc1ccccc1` [Remdesivir, reference compound], for which the EC90 was found to be 1.2 µM in [14]; 0.6 µM in series [5]; 3.5 µM in series [6] (setting [20]); 3.6 µM in series [6] (setting [22]); 0.04 µM in series [7]; 4.6 µM in series [16]. Further, the CC50 in [15] is 6.4 µM; in series [12], 12 µM; in [3] it was more than 100 µM; in [17] it was 1.5 µM. The pEC50 is 6.00 in series [6] (setting [19]), 5.92 in [6] (setting [21]), 8.40 in series [7] and 6.05 in [16].

Regarding `CCCCCCCC(=O)OC[C@H]1O[C@@](C#N)(n2ccc(N)nc2=O)C(O)C1O` (stereo partly shown) [drawing 134], the CC50 in series [1] is more than 100 µM; in series [2] it was 3.7 µM; in series [3], 45.7 µM; in series [4], 77.8 µM.

Regarding `CC(C)C(=O)OC[C@H]1O[C@@](C#N)(n2ccc(N)nc2=O)[C@H](O)[C@@H]1O` [Compound 23, ((2R,3S,4R,5R)-5-(4-Amino-2-oxopyrimidin-1(2H)-yl)-5-cyano-3,4-dihydroxytetrahydro-furan-2-yl)methyl isobutyrate], in series [18], the “time for conversion to compound A in plasma” value was “less than 5 min”.
